According to US7713960B2, “Inhibition of the Raf/Mek/P-Erk pathway for treating cancer” (University of South Florida, priority 2005, dated 2010):
“And” between values parts separate entries of the source, which are not always exact repeats. Equal values may be shown once. Where a name gives a salt, the structure may show the parent alone.

What was measured:
Type in all cases: cell-based, human
P-STAT3 = P-STAT3 levels (Western blotting), MDA-MB-231
Description: (§1) Western Blotting—Treated cell samples were lysed in 30 mM HEPES, 10 mM NaCl, 5 mM MgCl2, 25 mM NaF, 1 mM EGTA, 1% Triton-X-100, 10% Glycerol, 2 mM Sodium orthovanidate, 10 μg/mL aprotinin, 10 μg/mL soybean trypsin inhibitor, 25 μg/mL leupeptin, 2 mM phenylmethylsulfonylfluoride (PMSF), 6.4 mg/mL p-nitrophenylphosphate for 30 minutes at 4° C., and proteins run on SDS-PAGE gels then transferred to nitrocellulose membranes. Membranes were blocked in either 5% milk in PBS, pH 7.4, containing 0.1% Tween-20 (PBS-T) or 1% BSA in TBS, pH 7.5, containing 0.1% Tween-20 (TBS-T). Phospho-STAT3 and phospho-AKT antibodies were diluted in 1% BSA in TBS-T while phospho-c-Raf, phospho-Mek, and phospho-p44/p42 MAPK antibodies (Cell Signaling) were diluted in 5% milk in PBS-T for either 1 hour at room temperature or overnight at 4° C. HRP-conjugated secondary antibodies (Jackson ImmunoResearch, West Grove, Pa.) were diluted in 5% milk in PBS-T or TBS-T at a 1:1000 dilution for one hour at room temperature. Western blots results were visualized using enhanced chemiluminescence. Stripping of the membranes for reblotting was done using stripping buffer (62.5 mM Tris pH 7.6, 2% SDS, 0.7% 2-mercaptoethanol) at 50° C. for 30 minutes.

HCT-116 cells = test: Apoptosis assay (Cell Death Detection ELISA), HCT-116; conditions: 48 hours, two single values, dihydrochloride
Description: (§2) Apoptosis Assay—Apoptosis was analyzed using the Cell Death Detection ELISA (Roche, Indianapolis, Ind.) measuring cytoplasmic histone-associated mono- and oligonucleosome DNA fragments. Procedures were carried out according to the manufacturers protocol. Briefly, 1×10^5 cells were plated in 60 mm dishes and treated with various doses of ARA-211 or vehicle for 48 hours. Cells were lysed with the provided lysis buffer and lysate was incubated on the ELISA plate for 1 hour to capture the histone associated DNA indicative of apoptotic cells. Anti-DNA peroxidase conjugated antibody was added to detect the cleaved DNA and the microplate was washed and developed with ABTS substrate which was quantitated by microplate reader at 405 nm.

A-549 cells = test: Anchorage-dependent growth (MTT assay), A-549
Description: MTT Assay—2000 cells per well were plated into 96 well tissue culture plates, and the cells were allowed to attach overnight at 37° C. with 10% CO2. Cells were then treated with increasing concentrations of ARA-211, or vehicle (DMSO) and incubated for four days. At that time treatment medium was removed and replaced with 100 μl of lmg/ml MTT (Sigma-Aldrich, St. Louis, Mo.) in media and incubated at 37° C., 10% CO2 for 3 hours. After 3 hours the MTT media was removed and replaced with 100 μl/well of DMSO, rocked at room temperature for 5 minutes, then absorbance read at 540 nm on a micro-plate reader.

Mek-1 = test: In vivo kinase assay, intact MDA-MB-231 cells treated, Mek-1; conditions: 10 μM
Description: In Vitro Kinase Assays—MDA-MB-231 cells (2×10^6) were lysed for 30 minutes at 4° C. in RIPA-150 buffer (10 mM Tris pH 7.5, 150 mM NaCl, 10% glycerol, 5 mM EDTA, 1% Triton X-100, 0.1% SDS, 100 μM sodium orthovanadate, 1 μM aprotinin, 10 μM leupeptin, 10 μM antipain). Cell debris was pelleted at 13000 rpm for 15 minutes at 4° C. and the lysate was rocked overnight with 10 μg of either c-Raf or MEK antibodies (Santa Cruz Biotechnologies, Santa Cruz, Calif.). 25 μl of protein A/G PLUS agarose (Santa Cruz Biotechnology) was then added and rocked for 4 hours at 4° C. Samples were spun at 2000 rpm for 5 minutes to collect the agarose beads, which were then washed four times with lysis buffer. On the final wash each pellet was divided into 5. […]

SF-539 cells = test: Anchorage-independent growth (soft agar assay), SF-539
Description: (§3) Soft Agar Assay—Anchorage independent growth assays were performed as previously described (Lerner et al., 1997). Briefly, agar was diluted to 0.3% in propagation media containing 20,000 cells and either vehicle or ARA-211 and 1 ml of cell/agar mixture plated on top of 2 ml of a 0.6% layer of agar in medium alone. Cells were grown for three to four weeks at 37° C., 10% Co2 and were fed weekly with 100 μl per well of media/treatment. Quantification of colonies was done using a GS-700 scanning densitometer.

ACHN cells = test: Apoptosis assay (Cell Death Detection ELISA), ACHN; conditions: 48 hours
Description: as §2

SNB-19 cells [1] = test: Anchorage-independent growth (soft agar assay), SNB-19
Description: as §3

P-Erk 1/2 = P-Erk 1/2 levels (Western blotting), SNB-19
Description: as §1

SNB-19 cells [2] = test: Total cellular cAMP measurement, SNB-19
Description: Total cellular cAMP measurement—The measurement of total cellular cAMP was done using a cAMP Biotrak ™ Enzymeimmunoassay (EIA) system (Amersham Biosciences, Piscataway, N.J.) according to the manufacturer's protocol. Briefly, 2000 cells were plated into each well of a 96 well plate. The next day cells were treated with increasing concentrations of ARA-211 or with vehicle for one hour. Alternatively, MDA-MB-231 cells were pre-treated with antagonists to the α1 (Prazosin, Sigma), α2 (Yohimbine, Sigma), β1 (Metoprolol, Sigma), and β2 (ICI 118.551, Sigma) adrenergic receptors at 100 nM for 15 minutes followed by treatment with 10 μM ARA-211 for 45 minutes. Cells were then lysed directly in the wells using the supplied lysis buffer. The lysate was transferred to a 96-well cAMP ELISA plate, and results were quantified using a Wallac Victor 2 plate reader.

For `CC(C)(C)NCC(O)c1ccc(O)c(CO)n1` (stereo not drawn) [ARA-211, 2-hydroxymethyl-3-hydroxy-6-(1-hydroxy-2-tert-butylaminoethyl) pyridine, dihydrochloride], the P-STAT3 levels (P-STAT3) was “not”, the “Apoptosis (% Induction)” value (HCT-116 cells) was 0% and 1.2% and the “Anchorage Dependent Growth (% Inhibition)” value (A-549 cells) was 9.6 ± 6.1%. For the same compound, the “Mek-1 kinase activity, intact cells first treated” value (Mek-1) was “blocked”, the “Anchorage Independent Growth (% Inhibition)” value (SF-539 cells) was 94.4 ± 1.5% and the “Apoptosis (% Induction)” value (ACHN cells) was 11.4 ± 1.9%. The “Anchorage Independent Growth (% Inhibition)” value (SNB-19 cells [1]) was 5.1 ± 5.0%, the “P-Erk ½ (% Inhibition)” value (P-Erk 1/2) was 0% and the “cAMP (Fold Induction)” value (SNB-19 cells [2]) was 1.2 ± 0.4 Fold.
